{
  "source": "patent US8338465B2",
  "about": "“Cyclic carboxylic acid rhodanine derivatives for the treatment and prevention of tuberculosis” (priority 2006, dated 2012)",
  "data": [
    {"target": "T1, dihydrolipoamide acyltransferase (DlaT) (Mycobacterium tuberculosis, UniProt P9WIS7)", "T1 sequence (P9WIS7 1-553)": "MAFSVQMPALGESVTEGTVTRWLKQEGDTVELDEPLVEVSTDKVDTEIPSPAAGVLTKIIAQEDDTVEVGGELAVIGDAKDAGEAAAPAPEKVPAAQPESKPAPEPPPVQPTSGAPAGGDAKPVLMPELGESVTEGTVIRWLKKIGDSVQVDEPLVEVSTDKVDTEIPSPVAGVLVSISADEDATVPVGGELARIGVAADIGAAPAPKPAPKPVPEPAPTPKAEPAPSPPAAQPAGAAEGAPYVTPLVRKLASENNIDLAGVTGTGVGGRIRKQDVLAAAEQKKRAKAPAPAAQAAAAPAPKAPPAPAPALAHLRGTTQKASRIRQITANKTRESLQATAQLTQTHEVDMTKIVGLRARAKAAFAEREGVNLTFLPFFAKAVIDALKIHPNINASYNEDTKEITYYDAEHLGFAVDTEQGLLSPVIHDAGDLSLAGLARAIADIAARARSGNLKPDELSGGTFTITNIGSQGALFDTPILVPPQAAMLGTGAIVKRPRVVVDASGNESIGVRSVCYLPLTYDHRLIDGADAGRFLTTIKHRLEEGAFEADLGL", "assay": "DlaT inhibition (Dlat IC50); DTNB peroxidase assay with Lpd, DlaT and AhpD", "assay_type": "biochemical", "settings": "Dlat IC50 category", "units": {"IC50": "µM"}, "values": [
      {"smiles": "O=C1C(=Cc2ccc(-c3ccc(Cl)cc3)o2)SC(=S)N1C1CCC(O)CC1", "note": "(stereo not shown) [Compound C22, 5-[1-[5-(4-chloro-phenyl)-furan-2-yl]-methylidene]-3-(4-hydroxy-cyclohexyl)-2-thioxo-thiazolidin-4-one]", "IC50": "11 to 40"},
      {"smiles": "Cc1cccc(C)c1-c1ccc(C=C2SC(=S)N(C3CCCC(C(=O)O)C3)C2=O)o1", "note": "(stereo not shown) [Compound C23, 3-{5-[5-(2,6-Dimethyl-phenyl)-furan-2-ylmethylene]-4-oxo-2-thioxo-thiazolidin-3-yl}-cyclohexanecarboxylic acid]", "IC50": "11 to 40"},
      {"smiles": "Cc1ccccc1-c1cccc(C=C2SC(=S)N(C3CCCC(C(=O)O)C3)C2=O)c1", "note": "(stereo not shown) [Compound C24, 3-{5-[1-(2′-methyl-biphenyl-3-yl)-methylidene]-4-oxo-2-thioxo-thiazolidin-3-yl}cyclohexanecarboxylic acid]", "IC50": "11 to 40"},
      {"smiles": "COc1cc(F)ccc1-c1ccc(C=C2SC(=S)N(C3CCCC(C(=O)O)C3)C2=O)o1", "note": "(stereo not shown) [Compound C25, 3-{5-[1-[5-(4-fluoro-2-methoxy-phenyl)-furan-2-yl]-methylidene]-4-oxo-2-thioxo-thiazolidin-3-yl}-cyclohexanecarboxylic acid]", "IC50": "< 10"},
      {"smiles": "COc1ccc(-c2ccc(C=C3SC(=S)N(C4CCCC(C(=O)O)C4)C3=O)o2)cc1F", "note": "(stereo not shown) [Compound C26, 3-{5-[1-[5-(3-fluoro-4-methoxy-phenyl)-furan-2-yl]-methylidene]-4-oxo-2-thioxo-thiazolidin-3-yl}-cyclohexanecarboxylic acid]", "IC50": "< 10"},
      {"smiles": "O=C(O)C1CCCC(N2C(=O)C(=Cc3ccc(-c4ccccc4OCc4ccccc4)o3)SC2=S)C1", "note": "(stereo not shown) [Compound C27, 3-{5-[1-[5-(2-benzyloxy-phenyl)-furan-2-yl]-methylidene]-4-oxo-2-thioxo-thiazolidin-3-yl}-cyclohexanecarboxylic acid]", "IC50": "< 10"},
      {"smiles": "Cc1cc(C)c(-c2ccc(C=C3SC(=S)N(C4CCCC(C(=O)O)C4)C3=O)o2)c(C)c1", "note": "(stereo not shown) [Compound C28, 3-{4-Oxo-2-thioxo-5-[5-(2,4,6-trimethyl-phenyl)-furan-2-ylmethylene]-thiazolidin-3-yl}-cyclohexanecarboxylic acid]", "IC50": "< 10"},
      {"smiles": "Cc1cc(N(C)C)ccc1-c1ccc(C=C2SC(=S)N(C3CCCC(C(=O)O)C3)C2=O)o1", "note": "(stereo not shown) [Compound C29, 3-{5-[5-(4-Dimethylamino-2-methyl-phenyl)-furan-2-ylmethylene]-4-oxo-2-thioxo-thiazolidin-3-yl}-cyclohexanecarboxylic acid]", "IC50": "11 to 40"},
      {"smiles": "CSc1ccccc1-c1ccc(C=C2SC(=S)N(C3CCCC(C(=O)O)C3)C2=O)o1", "note": "(stereo not shown) [Compound C30, 3-{5-[1-[5-(2-methylsulfanyl-phenyl)-furan-2-yl]-methylidene]-4-oxo-2-thioxo-thiazolidin-3-yl}-cyclohexanecarboxylic acid]", "IC50": "< 10"},
      {"smiles": "Cc1ccccc1-c1ccc(C=C2SC(=S)N(C3CCCC(C(=O)O)C3)C2=O)s1", "note": "(stereo not shown) [Compound C31, 3-{4-oxo-2-thioxo-5-[1-(5-o-tolyl-thiophen-2-yl)-methylidene]-thiazolidin-3-yl}-cyclohexanecarboxylic acid]", "IC50": "11 to 40"},
      {"smiles": "O=C(O)C1CCCC(N2C(=O)C(=Cc3ccc(-c4ccccc4Cl)s3)SC2=S)C1", "note": "(stereo not shown) [Compound C32, 3-{4-oxo-2-thioxo-5-[1-(5-(2-chloro-phenyl)-thiophen-2-yl)-methylidene]-thiazolidin-3-yl}-cyclohexanecarboxylic acid]", "IC50": "< 10"},
      {"smiles": "O=C(O)C1CCCC(N2C(=O)C(=Cc3ccccc3OCc3ccccc3Cl)SC2=S)C1", "note": "(stereo not shown) [Compound C33, 3-{5-[2-(2-Chloro-benzyloxy)-benzylidene]-4-oxo-2-thioxo-thiazolidin-3-yl}-cyclohexanecarboxylic acid]", "IC50": "11 to 40"},
      {"smiles": "O=C(O)C1CCCC(N2C(=O)C(=Cc3ccc(-c4ccccc4Oc4ccccc4)o3)SC2=S)C1", "note": "(stereo not shown) [Compound C34, 3-{4-oxo-5-[1-[5-(2-phenoxy-phenyl)-furan-2-yl]-methylidene]-2-thioxo-thiazolidin-3-yl}-cyclohexanecarboxylic acid]", "IC50": "< 10"}
    ]}
  ]
}
